Tests used:
Assay type in all cases: cell-based
[1] = test system: EKVX; experiment: Cytotoxicity against human EKVX cells assessed as effect on cell growth at 10 uM incubated for 48 hrs by sulforhodamine B assay
[2] = test system: 786-0; experiment: Cytotoxicity against human 786-0 cells assessed as effect on cell growth at 10 uM incubated for 48 hrs by sulforhodamine B assay; details: 786-0, 48 h
[3] = test system: Malme-3M; experiment: Cytotoxicity against human MALME-3M cells assessed as effect on cell growth at 10 uM incubated for 48 hrs by sulforhodamine B assay
[4] = test system: K562; experiment: Cytotoxicity against human K562 cells assessed as effect on cell growth at 10 uM incubated for 48 hrs by sulforhodamine B assay; details: k562, 48 h
[5] = test system: NCI-H460; experiment: Cytotoxicity against human NCI-H460 cells assessed as effect on cell growth at 10 uM incubated for 48 hrs by sulforhodamine B assay; details: nci-h460, 48 h
[6] = test system: NCI-H322M; experiment: Cytotoxicity against human NCI-H322M cells assessed as effect on cell growth at 10 uM incubated for 48 hrs by sulforhodamine B assay
[7] = test system: SW-620; experiment: Cytotoxicity against human SW620 cells assessed as effect on cell growth at 10 uM incubated for 48 hrs by sulforhodamine B assay; details: sw-620, 48 h
[8] = test system: TK-10; experiment: Cytotoxicity against human TK10 cells assessed as effect on cell growth at 10 uM incubated for 48 hrs by sulforhodamine B assay; details: tk-10, 48 h
[9] = test system: SK-MEL-28; experiment: Cytotoxicity against human SK-MEL-28 cells assessed as effect on cell growth at 10 uM incubated for 48 hrs by sulforhodamine B assay; details: sk-mel-28, 48 h
[10] = test system: COLO 205; experiment: Cytotoxicity against human COLO205 cells assessed as effect on cell growth at 10 uM incubated for 48 hrs by sulforhodamine B assay; details: colo 205, 48 h
[11] = test system: ACHN; experiment: Cytotoxicity against human ACHN cells assessed as effect on cell growth at 10 uM incubated for 48 hrs by sulforhodamine B assay
[12] = test system: OVCAR-5; experiment: Cytotoxicity against human OVCAR5 cells assessed as effect on cell growth at 10 uM incubated for 48 hrs by sulforhodamine B assay; details: ovcar-5, 48 h
[13] = test system: SK-OV-3; experiment: Cytotoxicity against human SKOV3 cells assessed as effect on cell growth at 10 uM incubated for 48 hrs by sulforhodamine B assay; details: sk-ov-3, 48 h
[14] = test system: RXF 393; experiment: Cytotoxicity against human RXF393 cells assessed as effect on cell growth at 10 uM incubated for 48 hrs by sulforhodamine B assay; details: rxf 393, 48 h
[15] = test system: MCF7; experiment: Cytotoxicity against human MCF7 cells assessed as effect on cell growth at 10 uM incubated for 48 hrs by sulforhodamine B assay; details: mcf7, 48 h
[16] = test system: MDA-MB-231; experiment: Cytotoxicity against human MDA-MB-231 cells assessed as effect on cell growth at 10 uM incubated for 48 hrs by sulforhodamine B assay; details: mda-mb-231, 48 h
[17] = test system: OVCAR-4; experiment: Cytotoxicity against human OVCAR4 cells assessed as effect on cell growth at 10 uM incubated for 48 hrs by sulforhodamine B assay; details: ovcar-4, 48 h
[18] = test system: A498; experiment: Cytotoxicity against human A498 cells assessed as effect on cell growth at 10 uM incubated for 48 hrs by sulforhodamine B assay; details: a498, 48 h
[19] = test system: OVCAR-8; experiment: Cytotoxicity against human OVCAR8 cells assessed as effect on cell growth at 10 uM incubated for 48 hrs by sulforhodamine B assay; details: ovcar-8, 48 h
[20] = test system: DU-145; experiment: Cytotoxicity against human DU145 cells assessed as effect on cell growth at 10 uM incubated for 48 hrs by sulforhodamine B assay; details: du-145, 48 h

Measured: Activity

O=C(NCc1ccc(Cl)cc1Cl)[C@@H]1CCC(=O)N1c1ccc(Cl)cc1Cl
Non-Toxic: all assays above

COc1ccc(CNC(=O)[C@@H]2CCC(=O)N2Cc2ccc(Cl)cc2Cl)c(OC)c1
Non-Toxic: all assays above

O=C(NCCc1ccc(Cl)cc1Cl)[C@@H]1CCC(=O)N1c1ccccc1
Non-Toxic: all assays above

O=C(NCc1ccc(Cl)cc1Cl)c1ccccn1
Non-Toxic: all assays above

O=C(NCc1ccccc1Cl)[C@@H]1CCC(=O)N1Cc1ccc(Cl)cc1
Non-Toxic: all assays above

CCCCCCN1C(=O)[C@@H]2C/C(=C\N(C)C)C(=O)N2C1N(C)C (stereo not given in full)
Non-Toxic: all assays above

O=C(NCc1ccc(Cl)cc1Cl)[C@@H]1CCC(=O)N1c1ccccc1
Non-Toxic: all assays above

O=C(NCc1ccc(Cl)cc1Cl)[C@@H]1CCC(=O)N1C(c1ccc(Cl)cc1)c1ccc(Cl)cc1
Non-Toxic: all assays above

— ChEMBL document CHEMBL4627246, “Pyroglutamide-Based P2X7 Receptor Antagonists Targeting Inflammatory Bowel Disease” (J Med Chem, 2020)
